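Exposure lasted 48 hours, with cells grown in 96-well plates and compounds tested at five concentrations. TGI marks complete inhibition of growth.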
Columns and labels:
Assay in all cases: NCI anticancer screen, dose series, 48 h
[1] = test system: T-47D breast
[2] = test system: OVCAR-5 ovarian
[3] = test system: HS 578T breast
[4] = test system: UACC-62 melanoma
[5] = test system: HCT-15 colon
[6] = test system: DU-145 prostate
[7] = test system: A549 NSCLC
[8] = test system: NCI/ADR-RES ovarian
[9] = test system: NCI-H460 lung
[10] = test system: NCI-H522 lung
[11] = test system: OVCAR-3 ovarian
[12] = test system: HT29 colon
[13] = test system: MCF7 breast
[14] = test system: SN12C renal
[15] = test system: EKVX NSCLC
[16] = test system: SW-620 colon
[17] = test system: HCC-2998 colon
[18] = test system: SF-295 CNS
[19] = test system: BT-549 breast
[20] = test system: MALME-3M melanoma
[21] = test system: SNB-19 CNS
[22] = test system: UO-31 renal
[23] = test system: NCI-H226 lung
[24] = test system: CAKI-1 renal
[25] = test system: M14 melanoma
[26] = test system: SK-MEL-5 melanoma
[27] = test system: HCT-116 colon
[28] = test system: PC-3 prostate
[29] = test system: K-562 leukemia
[30] = test system: HL-60(TB) leukemia
[31] = test system: IGROV1 ovarian
[32] = test system: SR leukemia
[33] = test system: OVCAR-8 ovarian
[34] = test system: SNB-75 CNS
[35] = test system: KM12 colon
[36] = test system: U251 CNS
[37] = test system: ACHN renal
[38] = test system: COLO 205 colon
[39] = test system: SF-539 CNS
[40] = test system: SF-268 CNS
[41] = test system: UACC-257 melanoma
[42] = test system: OVCAR-4 ovarian
[43] = test system: MDA-MB-435
[44] = test system: SK-MEL-2 melanoma
[45] = test system: HOP-62 NSCLC
[46] = test system: 786-0 renal
[47] = test system: TK-10 renal
[48] = test system: HOP-92 NSCLC
[49] = test system: CCRF-CEM leukemia
[50] = test system: A498 renal
[51] = test system: NCI-H23 lung
[52] = test system: RXF 393 renal
[53] = test system: MOLT-4 leukemia
[54] = test system: MDA-N
[55] = test system: SK-OV-3 ovarian
[56] = test system: LOX IMVI melanoma
[57] = test system: SK-MEL-28 melanoma
[58] = test system: RPMI-8226 leukemia

Structure (SMILES): O=S(=O)(O)c1ccc2cc(N=Nc3c(O)ccc4ccccc34)ccc2c1
- TGI [1]: > 100 µM
- TGI [2]: > 100 µM
- TGI [3]: > 100 µM
- TGI [4]: > 100 µM
- TGI [5]: > 100 µM
- TGI [6]: > 100 µM
- TGI [7]: > 100 µM
- TGI [8]: > 100 µM
- TGI [9]: > 100 µM
- TGI [10]: > 100 µM
- TGI [11]: > 100 µM
- TGI [12]: > 100 µM
- TGI [13]: > 100 µM
- TGI [14]: > 100 µM
- TGI [15]: > 100 µM
- TGI [16]: > 100 µM
- TGI [17]: > 100 µM
- TGI [18]: > 100 µM
- TGI [19]: > 100 µM
- TGI [20]: > 100 µM
- TGI [21]: > 100 µM
- TGI [22]: > 100 µM
- TGI [23]: > 100 µM
- TGI [24]: > 100 µM
- TGI [25]: > 100 µM
- TGI [26]: > 100 µM
- TGI [27]: > 100 µM
- TGI [28]: > 100 µM
- TGI [29]: > 100 µM
- TGI [30]: > 100 µM
- TGI [31]: > 100 µM
- TGI [32]: > 100 µM
- TGI [33]: > 100 µM
- TGI [34]: > 100 µM
- TGI [35]: > 100 µM
- TGI [36]: > 100 µM
- TGI [37]: > 100 µM
- TGI [38]: > 100 µM
- TGI [39]: > 100 µM
- TGI [40]: > 100 µM
- TGI [41]: > 100 µM
- TGI [42]: > 100 µM
- TGI [43]: > 100 µM
- TGI [44]: > 100 µM
- TGI [45]: > 100 µM
- TGI [46]: > 100 µM
- TGI [47]: > 100 µM
- TGI [48]: > 100 µM
- TGI [49]: > 100 µM
- TGI [50]: > 100 µM
- TGI [51]: > 100 µM
- TGI [52]: > 100 µM
- TGI [53]: > 100 µM
- TGI [54]: > 100 µM
- TGI [55]: > 100 µM

Structure (SMILES): COc1ccccc1C1c2cc3c(cc2OC(N2CCCC2)C1C)OCO3 (stereo not given)
- TGI [1]: 25.5 µM
- TGI [2]: 41.1 µM
- TGI [3]: 30 µM
- TGI [4]: 38.4 µM
- TGI [5]: 44.6 µM
- TGI [6]: 26.9 µM
- TGI [7]: 46 µM
- TGI [8]: 53.7 µM
- TGI [9]: 40.9 µM
- TGI [56]: 38.1 µM
- TGI [10]: 42.1 µM
- TGI [11]: 32.4 µM
- TGI [12]: 39.5 µM
- TGI [13]: 39.4 µM
- TGI [14]: 39.7 µM
- TGI [15]: 50.6 µM
- TGI [16]: 44.7 µM
- TGI [17]: 32.9 µM
- TGI [18]: 39.3 µM
- TGI [19]: 48 µM
- TGI [20]: 43.2 µM
- TGI [21]: 47.9 µM
- TGI [22]: 33 µM
- TGI [24]: 31.4 µM
- TGI [25]: 30.1 µM
- TGI [26]: 29.4 µM
- TGI [27]: 29.1 µM
- TGI [28]: 32.4 µM
- TGI [29]: > 53.3 µM
- TGI [30]: 49 µM
- TGI [31]: 51.5 µM
- TGI [32]: 31.1 µM
- TGI [33]: 64 µM
- TGI [34]: 27.3 µM
- TGI [35]: 39.5 µM
- TGI [36]: 39.1 µM
- TGI [37]: > 57.5 µM
- TGI [38]: 35.6 µM
- TGI [39]: 31.7 µM
- TGI [40]: 30.9 µM
- TGI [41]: 48.1 µM
- TGI [42]: 70.5 µM
- TGI [43]: 34.2 µM
- TGI [44]: 29.8 µM
- TGI [45]: 29.4 µM
- TGI [46]: 35.3 µM
- TGI [47]: 47.9 µM
- TGI [48]: 20.6 µM
- TGI [49]: 47.8 µM
- TGI [57]: 48 µM
- TGI [58]: 38.8 µM
- TGI [50]: 30.3 µM
- TGI [51]: > 31.6 µM
- TGI [52]: 36.9 µM
- TGI [54]: 28.9 µM
